Results on 47 substances are retold here after patent US10517889B2, “Modulators of SMAD7 expression” (Ionis Pharmaceuticals, Inc., priority 2017, dated 2019).

Strand notation (5' to 3'): a small letter for the sugar, then the base; units joined by * are phosphorothioate-linked, units joined directly phosphodiester-linked; [ ] holds rarer units or linkages, { } end groups; capitals alone tell only the bases. k = constrained ethyl (cEt); [5mC] = 5-methylcytosine; d = 2'-deoxy (DNA)

The subject of the first data set is human SMAD7 mRNA. The experiment in a line: Antisense inhibition of human SMAD7 mRNA expression in Hep3B cells by 3-10-3 cEt gapmers, 10,000 nM, electroporation (Example 2). Format: cell-based. The conditions noted are these: Hep3B cells, 10,000 nM antisense oligonucleotide, electroporation, approximately 24 hours, RT-PCR primer probe set RTS5062, relative to untreated control cells. The method in brief: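 SMAD7 mRNA was measured by real-time PCR (RTS5062) with RiboGreen total-RNA normalization, about 24 h after 10,000 nM gapmer was delivered by electroporation into Hep3B cells at 20,000 per well. Gapmers were 16-mer 3-10-3 cEt, fully phosphorothioate; values are % inhibition versus untreated controls.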
For “798819 (kT*k[5mC]*k[5mC]*d[5mC]*dA*dG*dT*dA*dT*dG*d[5mC]*d[5mC]*dA*k[5mC]*k[5mC]*kA; antisense) [compound 798819]”, the % Inhibition (as a rule, the change of the read-out against control, counted positive when it falls) came out at 0%.
Same read-out and setting: the figure for “798820 (kT*k[5mC]*kT*d[5mC]*d[5mC]*dT*d[5mC]*d[5mC]*d[5mC]*dA*dG*dT*dA*kT*kG*k[5mC]; antisense) [compound 798820]” is 24%.
On the same count and under the same terms, in the case of “798821 (kA*kG*k[5mC]*d[5mC]*dT*d[5mC]*d[5mC]*d[5mC]*d[5mC]*dA*d[5mC]*dT*d[5mC]*kT*k[5mC]*kG; antisense) [compound 798821]” it was 32%.
Same read-out and setting: the figure for “798822 (kG*kT*kA*dG*dA*dG*d[5mC]*d[5mC]*dT*d[5mC]*d[5mC]*d[5mC]*d[5mC]*kA*k[5mC]*kT; antisense) [compound 798822]” is 56%.
For the substance “798825 (k[5mC]*kT*kG*dG*dA*d[5mC]*dA*d[5mC]*dA*dG*dT*dA*dG*kA*kG*k[5mC]; antisense) [compound 798825]”, the “% Inhibition” value is given as 24%.
In the case of “798826 (k[5mC]*kT*k[5mC]*d[5mC]*dT*dG*dG*dA*d[5mC]*dA*d[5mC]*dA*dG*kT*kA*kG; antisense) [compound 798826]”, the “% Inhibition” value worked out at 14%.
The same measure, in the same setting: in the case of “798827 (kA*kG*kA*dG*dA*dG*dG*dG*d[5mC]*dT*d[5mC]*d[5mC]*dT*kG*kG*kA; antisense) [compound 798827]” it was 21%.
The same measure, in the same setting: in the case of “798835 (k[5mC]*kG*kA*dG*dG*d[5mC]*dA*dA*dA*dA*dG*d[5mC]*d[5mC]*kA*kT*kT; antisense) [compound 798835]” it was 22%; in that of “798836 (kG*kT*k[5mC]*d[5mC]*dG*dA*dG*dG*d[5mC]*dA*dA*dA*dA*kG*k[5mC]*k[5mC]; antisense) [compound 798836]”, 56%.
On the same count and under the same terms, in the case of “798837 (kG*k[5mC]*kT*dG*dT*d[5mC]*d[5mC]*dG*dA*dG*dG*d[5mC]*dA*kA*kA*kA; antisense) [compound 798837]” it was 33%.
For the substance “798838 (k[5mC]*k[5mC]*kG*dA*dA*dT*dT*dG*dA*dG*d[5mC]*dT*dG*kT*k[5mC]*k[5mC]; antisense) [compound 798838]”, the “% Inhibition” value was determined as 58%.
On the same count and under the same terms, in the case of “798839 (kG*kT*kT*dG*dT*d[5mC]*d[5mC]*dG*dA*dA*dT*dT*dG*kA*kG*k[5mC]; antisense) [compound 798839]” it was 47%; in that of “798840 (k[5mC]*kT*k[5mC]*dT*dT*dG*dT*dT*dG*dT*d[5mC]*d[5mC]*dG*kA*kA*kT; antisense) [compound 798840]”, 56%.
For the substance “798841 (k[5mC]*kT*kG*dA*d[5mC]*dT*d[5mC]*dT*dT*dG*dT*dT*dG*kT*k[5mC]*k[5mC]; antisense) [compound 798841]”, the “% Inhibition” value is 0%.
On the same count and under the same terms, the figure for “798842 (k[5mC]*kA*kG*d[5mC]*dT*dG*dA*d[5mC]*dT*d[5mC]*dT*dT*dG*kT*kT*kG; antisense) [compound 798842]” is 0%; for “798853 (k[5mC]*k[5mC]*kA*d[5mC]*dA*d[5mC]*dA*d[5mC]*d[5mC]*dA*dT*d[5mC]*d[5mC]*kA*k[5mC]*k[5mC]; antisense) [compound 798853]” it is 7%.
The same measure, in the same setting: in the case of “798854 (kT*kA*k[5mC]*dA*d[5mC]*d[5mC]*d[5mC]*dA*d[5mC]*dA*d[5mC]*dA*d[5mC]*k[5mC]*kA*kT; antisense) [compound 798854]” it was 25%.
Same read-out and setting: in the case of “798855 (kT*kT*kG*dT*dA*d[5mC]*dA*d[5mC]*d[5mC]*d[5mC]*dA*d[5mC]*dA*k[5mC]*kA*k[5mC]; antisense) [compound 798855]” it was 11%; in that of “798856 (kT*kG*k[5mC]*dG*dG*dT*dT*dG*dT*dA*d[5mC]*dA*d[5mC]*k[5mC]*k[5mC]*kA; antisense) [compound 798856]”, 67%.

Staying with this data set, now noted: Hep3B cells, electroporation with 10,000 nM antisense oligonucleotide, approximately 24 hours, SMAD7 mRNA by RT-PCR (RTS5062), relative to untreated control cells.
Turning to “798811 (k[5mC]*kA*kG*dA*dA*dG*dA*dA*dG*dT*dT*dG*dG*kG*kA*kA; antisense) [compound 798811]”, the “% Inhibition” value was determined as 1%.
For the substance “798812 (k[5mC]*kT*k[5mC]*d[5mC]*dA*dG*dA*dA*dG*dA*dA*dG*dT*kT*kG*kG; antisense) [compound 798812]”, the “% Inhibition” value is 0%.
With “798813 (k[5mC]*k[5mC]*kG*dA*dT*d[5mC]*d[5mC]*d[5mC]*d[5mC]*dA*dG*dG*d[5mC]*kT*k[5mC]*k[5mC]; antisense) [compound 798813]”, the “% Inhibition” value is 23%.
As to “798814 (kA*k[5mC]*k[5mC]*dA*dG*dT*dG*dT*dG*dA*d[5mC]*d[5mC]*dG*kA*kT*k[5mC]; antisense) [compound 798814]”, the “% Inhibition” value is on record as 25%.
The same measure, in the same setting: the figure for “798815 (k[5mC]*kG*k[5mC]*dA*d[5mC]*d[5mC]*dA*dG*dT*dG*dT*dG*dA*k[5mC]*k[5mC]*kG; antisense) [compound 798815]” is 45%; for “798816 (k[5mC]*k[5mC]*kA*d[5mC]*dG*d[5mC]*dA*d[5mC]*d[5mC]*dA*dG*dT*dG*kT*kG*kA; antisense) [compound 798816]” it is 24%.
Same read-out and setting: in the case of “798817 (kG*k[5mC]*k[5mC]*dA*d[5mC]*d[5mC]*dA*d[5mC]*dG*d[5mC]*dA*d[5mC]*d[5mC]*kA*kG*kT; antisense) [compound 798817]” it was 26%; in that of “798818 (kT*kA*kT*dG*d[5mC]*d[5mC]*dA*d[5mC]*d[5mC]*dA*d[5mC]*dG*d[5mC]*kA*k[5mC]*k[5mC]; antisense) [compound 798818]”, 63%; in that of “798828 (kA*kT*k[5mC]*d[5mC]*dA*dG*dA*dG*dA*dG*dG*dG*d[5mC]*kT*k[5mC]*k[5mC]; antisense) [compound 798828]”, 18%.
The same measure, in the same setting: in the case of “798829 (kG*kA*kT*dA*dT*d[5mC]*d[5mC]*dA*dG*dA*dG*dA*dG*kG*kG*k[5mC]; antisense) [compound 798829]” it was 0%; in that of “798830 (kG*kA*kA*dG*dA*dT*dA*dT*d[5mC]*d[5mC]*dA*dG*dA*kG*kA*kG; antisense) [compound 798830]”, 17%; in that of “798831 (kA*kT*kA*dG*dA*dA*dG*dA*dT*dA*dT*d[5mC]*d[5mC]*kA*kG*kA; antisense) [compound 798831]”, 0%.
Turning to “798832 (kA*kT*k[5mC]*dA*dT*dA*dG*dA*dA*dG*dA*dT*dA*kT*k[5mC]*k[5mC]; antisense) [compound 798832]”, the “% Inhibition” value amounted to 41%.
Same read-out and setting: the figure for “798833 (kT*kA*kG*dA*dT*d[5mC]*dA*dT*dA*dG*dA*dA*dG*kA*kT*kA; antisense) [compound 798833]” is 48%; for “798834 (kA*kA*kA*dA*dG*d[5mC]*d[5mC]*dA*dT*dT*d[5mC]*d[5mC]*d[5mC]*k[5mC]*kT*kG; antisense) [compound 798834]” it is 55%.
The same measure, in the same setting: in the case of “798843 (k[5mC]*kT*kG*d[5mC]*dA*d[5mC]*d[5mC]*dA*dG*d[5mC]*dT*dG*dA*k[5mC]*kT*k[5mC]; antisense) [compound 798843]” it was 37%.
Still for that read-out and setting: the figure for “798844 (kA*k[5mC]*k[5mC]*dT*dT*d[5mC]*dT*dG*d[5mC]*dA*d[5mC]*d[5mC]*dA*kG*k[5mC]*kT; antisense) [compound 798844]” is 30%.
In the case of “798845 (k[5mC]*kG*k[5mC]*dA*d[5mC]*d[5mC]*dT*dT*d[5mC]*dT*dG*d[5mC]*dA*k[5mC]*k[5mC]*kA; antisense) [compound 798845]”, the “% Inhibition” value is reported as 18%.
On the same count and under the same terms, in the case of “798846 (k[5mC]*kT*k[5mC]*d[5mC]*dG*d[5mC]*dA*d[5mC]*d[5mC]*dT*dT*d[5mC]*dT*kG*k[5mC]*kA; antisense) [compound 798846]” it was 40%.
As to “798847 (kT*kT*kG*d[5mC]*dT*d[5mC]*d[5mC]*dG*d[5mC]*dA*d[5mC]*d[5mC]*dT*kT*k[5mC]*kT; antisense) [compound 798847]”, the “% Inhibition” value is on record as 24%.
Same read-out and setting: the figure for “798848 (kG*kA*kT*dT*dT*dT*dG*d[5mC]*dT*d[5mC]*d[5mC]*dG*d[5mC]*kA*k[5mC]*k[5mC]; antisense) [compound 798848]” is 40%.
Consider “798849 (k[5mC]*kA*kG*d[5mC]*d[5mC]*dG*dA*dT*dT*dT*dT*dG*d[5mC]*kT*k[5mC]*k[5mC]; antisense) [compound 798849]”, for which the “% Inhibition” value was 21%.
Same read-out and setting: in the case of “798850 (k[5mC]*kA*kG*d[5mC]*dT*dG*dG*dA*dT*dG*d[5mC]*d[5mC]*dG*k[5mC]*kA*kG; antisense) [compound 798850]” it was 12%; in that of “798851 (kA*k[5mC]*k[5mC]*dA*dT*d[5mC]*d[5mC]*dA*d[5mC]*d[5mC]*dT*d[5mC]*d[5mC]*k[5mC]*kG*k[5mC]; antisense) [compound 798851]”, 21%.

The data set is the same for the next values; noted with them: Hep3B cells, electroporation with 10,000 nM antisense oligonucleotide, approximately 24 hours, primer probe set RTS5062, relative to untreated control cells.
For the substance “798807 (kA*kT*k[5mC]*dT*dG*dA*dA*dA*dG*d[5mC]*d[5mC]*d[5mC]*d[5mC]*k[5mC]*k[5mC]*kA; antisense) [compound 798807]”, the “% inhibition of SMAD7 mRNA expression” value was 64%.
Still for that read-out and setting: the figure for “798808 (kG*kG*kA*dA*dT*d[5mC]*dT*dG*dA*dA*dA*dG*d[5mC]*k[5mC]*k[5mC]*k[5mC]; antisense) [compound 798808]” is 44%; for “798809 (kT*kT*kG*dG*dG*dA*dA*dT*d[5mC]*dT*dG*dA*dA*kA*kG*k[5mC]; antisense) [compound 798809]” it is 2%.
Same read-out and setting: the figure for “798810 (kA*kA*kG*dT*dT*dG*dG*dG*dA*dA*dT*d[5mC]*dT*kG*kA*kA; antisense) [compound 798810]” is 0%.
